Experimental data from patent publication US9453008B2, “Antithrombotic and antiatherosclerotic agent and method for producing same (variants)” (PROTON OOO, priority 2011, dated 2016).

Columns and labels:
[1] = tested on: spontaneously hypertensive (SHT) rats; test: Blood pressure in narcotized SHT rats, intravenous administration; assay type: in vivo, rat
Experimental: (§1) The experiments were performed on spontaneously hypertensive (SHT) and normotensive (NT) narcotized male rats using intravenous administration of the tested compounds. The ability of the compound to reduce arterial blood pressure (BP) in SHT rats and prevent spasmogenic reactions to noradrenalin (NA) and angiotensin I (AI).
The compound of formula I was used as a solution in 3% aqueous DMSO. Sodium nitroprusside and nitroglycerin were used as reference drugs.
The administration of the compound of formula I in dose range 0.01-0.1-0.5 and 1.0 mg/kg has exerted dose-dependent antihypertensive effect ranging in time from 30-40 s to 60 min and more.

[2] = tested on: pressor effect of angiotensin I; test: Pressor effect of angiotensin I after intravenous administration in normotensive narcotized rats; assay type: in vivo, rat
Experimental: as §1
(§2) The effects of the compound of formula I on the pressor effects of noradrenaline (NA, 10-15 μg/kg), mesatonum (M, 5 μg/kg) and angiotensin (AI, 5 μg/kg) were studied on normotensive narcotized […]. Antihypertensive action of the compound of formula I was assessed relative to the pressor effects of the control administration of the aforementioned compounds.

[3] = tested on: pressor effect of noradrenaline; test: Pressor effect of noradrenaline after intravenous administration in normotensive narcotized rats; assay type: in vivo, rat
Experimental: as §1, §2

non-narcotized SHT rats = test: Blood pressure in non-narcotized SHT rats, intragastric administration (non-invasive BP measurement); assay type: in vivo, rat; details: 10 mg/kg orally, 0 - absence of effect
Experimental: In experiments on non-narcotized SHT rats intragastric administration of the compound of formula I has caused dose-dependent reduction of BP, the duration of which was increased correspondingly with dose increase (maximal duration of effect 5 hours after single administration of 50 mg/kg dose, Table 3).

[4] = higher doses (above 0.01 mg/kg) intravenous

**Q.** With `CN1CC(C(O)C(O)C(O)CO)OC1=C(C#N)C=C1Nc2ccccc2C1=O` (stereo not shown) (hydrate or solvate) [X, 2-[2-Cyano-2-[3-methyl-5-(1,2,3,4-tetrahydroxybutyl)oxazolidin-2-ylidene]ethylidene]indolin-3-one] as the molecule, how does the melting point read?
**A.** 237 °C (dec.)

**Q.** For `CN1CCOC1=C(C#N)C=C1Nc2ccccc2C1=O` [IX, 2-[2-Cyano-2-(3-methyloxazolidin-2-ylidene)ethylidene]indolin-3-one], which melting point is on record?
**A.** 222 to 226 °C (dec.)

**Q.** With `O=[N+]([O-])OCC(CO[N+](=O)[O-])O[N+](=O)[O-]` [Nitroglycerin, reference compound] as the molecule, how does the “Duration of BP reduction” value ([1]; 0.01 mg/kg dose intravenous) read?
**A.** 30 to 40 s

**Q.** And the “Reduction of BP” value ([1]; 0.01 mg/kg dose intravenous)?
**A.** 10-15 mmHg

**Q.** And the “Reduction of BP, mmHg (Δ)” value ([1]; 0.01 mg/kg intravenously, 10-20 s)?
**A.** −5 mmHg

**Q.** And the “Reduction of BP, mmHg (Δ)” value ([1]; 0.01 mg/kg intravenously, 5 min)?
**A.** −10 ± 3 mmHg

**Q.** And the “Reduction of BP, mmHg (Δ)” value ([1]; 0.01 mg/kg intravenously, 30 min)?
**A.** −3 mmHg

**Q.** What about the “Reduction of BP, mmHg (Δ)” value ([1]; 0.1 mg/kg intravenously, 10-20 s) of the same molecule?
**A.** −7 ± 3 mmHg

**Q.** And the “Reduction of BP, mmHg (Δ)” value ([1]; 0.1 mg/kg intravenously, 5 min)?
**A.** −20 ± 5 mmHg

**Q.** And the “Reduction of BP, mmHg (Δ)” value ([1]; 0.1 mg/kg intravenously, 30 min)?
**A.** −5 mmHg

**Q.** And the “Reduction of BP, mmHg (Δ)” value ([1]; 0.5 mg/kg intravenously, 10-20 s)?
**A.** −12 ± 3 mmHg

**Q.** What about the “Reduction of BP, mmHg (Δ)” value ([1]; 0.5 mg/kg intravenously, 5 min) of the same molecule?
**A.** −25 ± 7 mmHg

**Q.** And the “Reduction of BP, mmHg (Δ)” value ([1]; 0.5 mg/kg intravenously, 30 min)?
**A.** −5 mmHg

**Q.** What about the “Reduction of BP, mmHg (Δ)” value ([1]; 1.0 mg/kg intravenously, 10-20 s) of the same molecule?
**A.** −10 ± 3 mmHg

**Q.** What about the “Reduction of BP, mmHg (Δ)” value ([1]; 1.0 mg/kg intravenously, 5 min) of the same molecule?
**A.** −25 ± 8 mmHg

**Q.** What about the “Reduction of BP, mmHg (Δ)” value ([1]; 1.0 mg/kg intravenously, 30 min) of the same molecule?
**A.** −7 ± 3 mmHg

**Q.** And the “Duration of BP reduction” value [1, 4]?
**A.** 300 to 360 s

**Q.** And the “Reduction of BP” value [1, 4]?
**A.** 20-25 mmHg

**Q.** And the “Inhibition of pressor reaction (%) induced by Angiotensin I” value ([2]; 0.5 mg/kg intravenous, 0 - absence of effect)?
**A.** 0%

**Q.** What about the “Inhibition of pressor reaction (%) induced by Angiotensin I” value ([2]; 1.0 mg/kg intravenous) of the same molecule?
**A.** 25-30%

**Q.** What about the “Inhibition of pressor reaction (%) induced by Noradrenaline” value ([3]; 0.5 mg/kg intravenous) of the same molecule?
**A.** 20-25%

**Q.** What about the “Inhibition of pressor reaction (%) induced by Noradrenaline” value ([3]; 1.0 mg/kg intravenous) of the same molecule?
**A.** 40-50%

**Q.** And the “Reduction of BP, mmHg” value (non-narcotized SHT rats; time column 1, 1 h after dosing)?
**A.** 0 mmHg

**Q.** What about the “Reduction of BP, mmHg” value (non-narcotized SHT rats; time column 2, 2 h after dosing) of the same molecule?
**A.** 0 mmHg

**Q.** And the “Reduction of BP, mmHg” value (non-narcotized SHT rats; time column 3, 3 h after dosing)?
**A.** 0 mmHg

**Q.** What about the “Reduction of BP, mmHg” value (non-narcotized SHT rats; time column 4, 4 h after dosing) of the same molecule?
**A.** 0 mmHg

**Q.** And the “Reduction of BP, mmHg” value (non-narcotized SHT rats; time column 5, 5 h after dosing)?
**A.** 0 mmHg

**Q.** What about the “Reduction of BP, mmHg” value (non-narcotized SHT rats; time column 6, 6 h after dosing) of the same molecule?
**A.** 0 mmHg
